Results: patent US20140179780A1, “PHARMACEUTICAL COMPOSITION CONTAINING OLEANOLIC ACID ACETATE AS AN ACTIVE INGREDIENT FOR PREVENTING OR TREATING TLR- OR IL-6-MEDIATED DISEASES” (Korea Research Institute of Bioscience and Biotechnology, priority 2011, published 2014)
Values joined by “and” are separate entries in the source; they are usually repeats but may differ in a detail not shown here. Equal values may be shown once. Read-outs that look alike come from different tables or passages of the source.

Experiments:
[1] = test system: IL-6-induced STAT3 transcriptional activation; test: IL-6 reactive STAT3 reporter gene (luciferase) assay in Hep3B cells; type: cell-based; conditions: for Inhibition (%) of STAT3 luciferase activity / IC50: IL-6 10 ng/ml; for Effect on STAT3 luciferase activity (in words): IL-6; for IC50: read-out: IC50, inhibition of IL-6-induced STAT3 luciferase activity
Experimental: pStat3-Luc and pcDNA3.1(+) (Clontech laboratories, Palo Alto, Calif.) were transfected into Hep3B cells (ATCC HB-8064) using lipofectamine plus (Invitrogen, Carlsbad, Calif., USA) at the same time. 2 days later, the cells were treated with hygromycin (100 μg/ml) to obtain clones stably expressing luciferase. Luciferase analysis was performed to examine whether luciferase is stably expressed in the clones.
The transfected cells in the clones obtained in Example 5-1 were cultured in DMEM (GIBCO 119950965) under serum starvation, and the samples were treated for 1 hour as follows. 10 ng/ml IL-6 (R&D system, USA) was added thereto, followed by cultivation for 12 hours.
The cultured cells were washed with PBS and 50 μl of lysis buffer (luciferase assay system, promega, USA) was added thereto, followed by stirring for 20 minutes. 30-100 μl of luciferase substrate (luciferase assay system, promega, USA) was added to measure […] using a luminometer (EG&G BERTHOLD, USA) within 5 minutes (Tables 5 and 6).
In detail, the inhibitory effects of oleanolic acid or oleanolic acid acetate on STAT3 luciferase activity was measured in the same manner as in Example 5-2, except that oleanolic acid or oleanolic acid acetate was treated as a sample in an amount of 0.1, 1, 3, 6 or 10 μM, respectively and compared with each other (FIG. 14).

[2] = test system: poly(I:C)-induced NFkB/AP-1 dependent SEAP activity (TLR3 signaling pathway); test: Poly(I:C)-induced NFkB/AP-1-dependent SEAP activity in THP1-Blue-CD14 cells; type: cell-based, Human; conditions: for Effect on poly(I:C)-induced SEAP activity (in words): THP-1-blue cells
Experimental: (§1) THP1-Blue-CD14 cells were seeded at a density of 2×10^5 cells/100 μl in a 96-well plate, and cultured at 37° C. for 3 hours.

[3] = test system: poly(I)-induced NFkB/AP-1 dependent SEAP activity (TLR7 signaling pathway); test: Poly(I)-induced NFkB/AP-1-dependent SEAP activity in THP1-Blue-CD14 cells; type: cell-based, Human; conditions: for Effect on poly(I)-induced SEAP activity (in words): THP-1-blue cells
Experimental: as §1

STAT3 phosphorylation = test: IL-6-induced STAT3 phosphorylation in Hep3B cells (Western blot); type: cell-based; conditions: IL-6 20 ng/ml 20 minutes, FIGS. 8a, 8b
Experimental: Hep3B cells were seeded in a 6-well plate at a density of 5×10^5 per well, and cultured to a confluency of 80% in a culture plate. Then, the medium was replaced with serum-free medium and further cultured for 12 hours, and the samples were treated for 60 minutes as follows.
Next, 20 ng/ml of IL-6 was treated, and reacted for 20 minutes, and 40 μl of lysis buffer (pH 8, 20 mM Tris-HCl, 137 mM NaCl, 10% glycerol, 1% Triton X-100, 1 mM Na3VO4, 2 mM EDTA, 1 mM APMSF, 20 μM leupeptin, 20 μg/ml aprotonin; Sigma, USA) was used for cell lysis. Centrifugation (13000 g, 15 minutes) was performed to obtain supernatants containing proteins. Protein concentrations were quantified using a DC protein assay kit (Bio-Rad, USA), and proteins were loaded in a 4˜12% SDS polyacrylamide gel (SDS-PAGE) and electrophoresis was performed at 175 mA for 2 hours. After electrophoresis, the proteins of the gel were transferred onto a PVDF membrane (Westran S, pore size […]; Whatman, USA) at 35 V for 90 minutes. The transferred membrane was blocked with Tris-buffer (T-TBS; 50 mM Tri-HCl, pH 7.6, 150 mM NaCl, 0.2% Tween-20, 5% skim milk; Sigma, USA) at room temperature for 1 hour, and washed with T-TBS five times. The membrane was treated with polyclonal antibody of phospho-STAT3 (1:1000 dilution) as a primary antibody at 4° C. 12 hours. […]

[4] = test system: osteoclast differentiation from bone marrow macrophages; test: RNAKL-induced osteoclast differentiation of bone marrow macrophages (TRAP staining); type: cell-based, mouse; conditions: for Osteoclast differentiation (number and size of TRAP-positive osteoclasts): M-CSF 30 ng/ml, RNAKL 50 ng/ml, 4 days
Experimental: Femurs and tibia were removed from 5-week-old mice, and the bone cavity was washed using a 1 cc syringe to obtain bone marrow cells. The isolated bone marrow cells were cultured in α-MEM (α-minimum essential medium) containing 10% FBS, antibiotic, M-CSF (30 ng/ml) for 3 days. 3 days later, the adherent cells were used as bone marrow macrophage (BMM). The bone marrow macrophages were cultured by addition of M-CSF (30 ng/ml) and an osteoclast differentiation factor RNAKL (Receptor activator of nuclear factor kappa-B ligand) (50 ng/ml) and treated with the adzuki bean extract and oleanolic acid acetate at each concentration. 4 days later, the cultured cells were stained with a TRAP solution (Sigma Aldrich, USA), and red stained cells were determined as differentiated osteoclasts.

[5] = Homo sapiens, sample 30 μM, poly(I:C) 100 μg/ml, read-out: Inhibition (%) of poly(I:C)-induced SEAP activity
[6] = Homo sapiens, sample 60 μM, poly(I:C) 100 μg/ml, read-out: Inhibition (%) of poly(I:C)-induced SEAP activity
[7] = Homo sapiens, sample 30 μM, poly(I) 50 μg/ml, read-out: Inhibition (%) of poly(I)-induced SEAP activity
[8] = Homo sapiens, sample 60 μM, poly(I) 50 μg/ml, read-out: Inhibition (%) of poly(I)-induced SEAP activity
[9] = Homo sapiens, read-out: Inhibition (%) of poly(I:C)-induced SEAP activity
[10] = Homo sapiens, read-out: Inhibition (%) of poly(I)-induced SEAP activity

SMILES: CC1(C)CC[C@]2(C(=O)O)CC[C@]3(C)C(=CC[C@@H]4[C@@]5(C)CC[C@H](O)C(C)(C)[C@@H]5CC[C@]43C)[C@@H]2C1 [oleanolic acid]
- Inhibition (%) of STAT3 luciferase activity ([1]; sample 10 μM): approximately 14%

SMILES: OC[C@H]1O[C@@H](Oc2cc(O)c3c(c2)O[C@H](c2ccc(O)c(O)c2)[C@@H](O)C3)[C@H](O)[C@@H](O)[C@@H]1O [Catechin-7-glucopyranoside, catechin-7-glucopyranoside, reference compound]
- Effect on poly(I:C)-induced SEAP activity (in words) [2]: did not affect
- Inhibition (%) of poly(I:C)-induced SEAP activity ([2]; sample 30 μM, poly(I:C) 100 μg/ml): 13.19%
- Inhibition (%) of poly(I:C)-induced SEAP activity ([2]; sample 60 μM, poly(I:C) 100 μg/ml): 11.16%
- Effect on poly(I)-induced SEAP activity (in words) [3]: did not affect
- Effect on STAT3 luciferase activity (in words) [1]: did not show the inhibitory effect
- Inhibition (%) of STAT3 luciferase activity ([1]; sample 30 μM): 8.3%
- Inhibition (%) of STAT3 luciferase activity ([1]; sample 60 μM): 15.9%
- Inhibition (%) of STAT3 luciferase activity ([1]; sample 100 μM): 0.4%

SMILES: O=c1c(-c2ccc(O)cc2)coc2cc(O)cc(O)c12 [Genistein, reference compound]
- Inhibition (%) of STAT3 luciferase activity ([1]; sample 100 μM): 95.2% and 95.1% and 95.4%

SMILES: C[C@@H]1O[C@@H](OC[C@H]2O[C@@H](Oc3c(-c4ccc(O)c(O)c4)oc4cc(O)cc(O)c4c3=O)[C@H](O)[C@@H](O)[C@@H]2O)[C@H](O)[C@H](O)[C@H]1O [Rutin, rutin, reference compound]
- inhibition at 30 µM [2, 5]: < 0%
- inhibition at 60 µM [2, 6]: < 0%
- inhibition at 30 µM [3, 7]: < 0%
- inhibition at 60 µM [3, 8]: < 0%

SMILES: O=c1cc(-c2ccc(O)c(O)c2)oc2cc(O)cc(O)c12 [Luteolin, reference compound]
- inhibition at 30 µM [2, 5]: 47.7%
- inhibition at 60 µM [2, 6]: 67.3%
- inhibition at 30 µM [3, 7]: 79.2%
- inhibition at 60 µM [3, 8]: 96.3%

SMILES: CC[C@H](/C=C/[C@@H](C)[C@H]1CC[C@H]2[C@@H]3CC=C4C[C@@H](O)CC[C@]4(C)[C@H]3CC[C@]12C)C(C)C [Stigmasterol, (3S,8S,9S,10R,13R,14S,17R)-17-[(E,2R,5S)-5-ethyl-6-methylhept-3-en-2-yl]-10,13-dimethyl-2,3,4,7,8,9,11,12,14,15,16,17-dodecahydro-1H-cyclopenta[a]phenanthren-3-ol]
- inhibition at 30 µM [2, 9]: 8.71%
- inhibition at 60 µM [2, 9]: 4.92%
- inhibition at 100 µM [2, 9]: < 0%
- Effect on poly(I:C)-induced SEAP activity (in words) [2]: did not show the inhibitory activity
- inhibition at 30 µM [3, 10]: < 0%
- inhibition at 60 µM [3, 10]: 2.63%
- inhibition at 100 µM [3, 10]: 1.42%
- Effect on poly(I)-induced SEAP activity (in words) [3]: did not show the inhibitory activity
- IC50 ([1]; Homo sapiens): 90 µM
- Effect on STAT3 luciferase activity (in words) [1]: inhibited STAT3 luciferase activity in a concentration dependent manner
- Inhibition (%) of STAT3 luciferase activity ([1]; sample 60 μM): 29.4%
- Inhibition (%) of STAT3 luciferase activity ([1]; sample 100 μM): 58.4%

SMILES: CC(=O)O[C@H]1CC[C@@]2(C)C(CC[C@]3(C)[C@@H]2CC=C2[C@H]4CC(C)(C)CC[C@]4(C(=O)O)CC[C@]23C)C1(C)C (stereo partly drawn) [Oleanolic acid acetate, 4aS,6aR,6aS,6bR,8aR,10S,12aR,14bS)-10-hydroxy-2,2,6a,6b,9,9,12a-heptamethyl-1,3,4,5,6,6a,7,8,8a,10,11,12,13,14b-tetradecahydropicene-4a-carboxylic acid acetate]
- inhibition at 10 µM [2, 9]: < 0%
- inhibition at 30 µM [2, 9]: 9.28%
- inhibition at 60 µM [2, 9]: 47.2%
- inhibition at 100 µM [2, 9]: 64.4%
- Effect on poly(I:C)-induced SEAP activity (in words) [2]: significantly inhibited
- inhibition at 10 µM [3, 10]: 2.02%
- inhibition at 30 µM [3, 10]: 43.9%
- inhibition at 60 µM [3, 10]: 74.6%
- inhibition at 100 µM [3, 10]: 83%
- Effect on poly(I)-induced SEAP activity (in words) [3]: significantly inhibited
- IC50 ([1]; Homo sapiens): < 1 µM
- Effect on STAT3 luciferase activity (in words) [1]: inhibited STAT3 luciferase activity in a concentration dependent manner
- IC50 [1]: 0.9 µM
- Inhibition (%) of STAT3 luciferase activity ([1]; sample 1 μM): 51.2%
- Inhibition (%) of STAT3 luciferase activity ([1]; sample 3 μM): 84.3%
- Inhibition (%) of STAT3 luciferase activity ([1]; sample 6 μM): 95.1%
- Inhibition (%) of STAT3 luciferase activity ([1]; sample 10 μM): 97.2%
- Inhibition (%) of STAT3 luciferase activity ([1]; sample 30 μM): 100%
- IL-6-induced STAT3 phosphorylation (STAT3 phosphorylation): showed the inhibitory effects
- Osteoclast differentiation ([4]; 10 μM): remarkable effect
- Osteoclast differentiation (number and size of TRAP-positive osteoclasts) [4]: remarkably inhibited
- Osteoclast differentiation (number and size of TRAP-positive osteoclasts) ([4]; listed as compound of Chemical Formula 1): reduced in a concentration-dependent manner
